Assay results as given in patent US10106627B2, “Process for the preparation of polymeric biosurfactants” (priority 2014, dated 2018).

Key:
[1] = DPPH free radical scavenging assay (cell free); assay type: biochemical; details: 35° C., 30 min
Procedure: The antioxidant activity of Microsan from Microbacterium sp. strain BS-2 and Brevisan from Brevibacillus sp. strain BS-207 in cell free system was measured by its inhibitory activity on the generation of DPPH free radicals, superoxide anions (O^2−), lipid peroxidation and erythrocyte hemolysis. The DPPH free radical scavenging assay was performed using 2,2-diphenyl-1-picrylhydrazyl (DPPH) free radical scavenging method [Ara. N. and Hasan, N. (2009) Res. J. Med. Medical Sci. 4, 107-110]. Different concentrations of Microsan and Brevisan were mixed individually with 150 μl of 160 μM methanolic solution of DPPH and incubated at 35° C. for 30 min in dark. The effective concentration (EC50) was calculated by measuring the absorbance of the samples at 517 nm. The superoxide anion scavenging was measured using phenazine methosulfate-nicotinamide adenine dinucleotide (PMS/NADH) method as previously described [Liu, F., Ooi, V. E. and Chang, S. T. (1997) Life Sci. 60, 763-771]. The lipid peroxidation assay was performed using the previously described method [Zhang, Q., Yu, P., Li, Z., Zhang, H., Xu, Z. and Li, P. (2003) J. Appl. Phycol. 15, 305-310] which is based on measuring the lipid peroxide decomposed product malondialdehyde (MDA). […] Samples were incubated at 37° C. for 30 min and the absorbance was measured at 540 nm. […]

IL-6 in RAW 264.7 cells = test: LPS-induced IL-6 ELISA in RAW 264.7 cells; assay type: cell-based, mouse; details: 50 μg ml^−1; LPS 100 ng ml^−1 24 h; LPS alone 190.9
Procedure: The effect of Brevisan, Microsan and M-EPS-Au-NP on the release of proinflammatory cytokines, TNF-α and IL-6, was measured using ELISA kits (Biosource International, Camarillo, Calif., USA). In independent experiments, the RAW-264.7 cells were treated with different concentrations (1, 10, 50 and 100 μg ml^−1) of Brevisan, Microsan and M-EPS-Au-NP and then stimulated with 100 ng ml^−1 of LPS. The supernatants were harvested after 24 h and the concentrations of TNF-α and IL-6 was measured using an ELISA kit according to the manufacturer's instructions.

[2] = Thermal degradation analysis (TGA/DSC); assay type: physicochemical
Procedure: The Microsan and Brevisan polymeric biosurfactants recovered and purified in Example 3 were subjected to structural characterization. The average molecular weight (Mw) of EPS was determined by gel permeation chromatography [Agilent 1100 Series HPLC system, TOSOH Corporation, Japan, equipped with a RID and a TSK G5000PWXL gel column (7.8×300 mm) and a TSK PWXL (6.0 mm×40 mm) guard column] using dextran standards ranging from 10680 to 578500 Da (Sigma, CAS No. 9004-54-0). The Fourier transform infrared spectra (FT-IR) were recorded on the Thermo-Nicolet Nexus 670 FT-IR spectrophotometer (Thermo Fisher Scientific Inc., Madison, Wis., U.S.A.) using KBr pellets containing 1% finely ground EPS samples and the spectra was collected at a resolution of 4 cm^−1 in the wavenumber region of 400-4,000 […]. The cross-polarization/magic angle spinning (CP/MAS) ^13C NMR experiments were performed on a Varian Unity Innova spectrometer operating at 400 MHz for ^1H and 100 MHz for ^13C at room temperature. […] Thermal degradation analyses of the EPS samples were measured using a DSC 821^c (Mettler Toledo GmbH, Switzerland) interfaced with Mettler Toledo Star SW (version 8.10) software. […] All of the XPS analyses were carried out in duplicates (two independent samples of each type of EPS analyzed at different time intervals). […]

Substance: β-D-glucuronyl-(1-2)-D-mannosyl-(1-4)-D-glucose [Microsan]
- EC50 DPPH free radical scavenging [1]: 40.78 µg/mL
- IL-6 production after treatment (IL-6 in RAW 264.7 cells): 90.01 µg/mL
- thermal degradation temperature (TGA) [2]: 280 °C
